Series [1] concerns the target T1, CYP1A2 (Homo sapiens, UniProt P05177).
T1 sequence (P05177 1-516): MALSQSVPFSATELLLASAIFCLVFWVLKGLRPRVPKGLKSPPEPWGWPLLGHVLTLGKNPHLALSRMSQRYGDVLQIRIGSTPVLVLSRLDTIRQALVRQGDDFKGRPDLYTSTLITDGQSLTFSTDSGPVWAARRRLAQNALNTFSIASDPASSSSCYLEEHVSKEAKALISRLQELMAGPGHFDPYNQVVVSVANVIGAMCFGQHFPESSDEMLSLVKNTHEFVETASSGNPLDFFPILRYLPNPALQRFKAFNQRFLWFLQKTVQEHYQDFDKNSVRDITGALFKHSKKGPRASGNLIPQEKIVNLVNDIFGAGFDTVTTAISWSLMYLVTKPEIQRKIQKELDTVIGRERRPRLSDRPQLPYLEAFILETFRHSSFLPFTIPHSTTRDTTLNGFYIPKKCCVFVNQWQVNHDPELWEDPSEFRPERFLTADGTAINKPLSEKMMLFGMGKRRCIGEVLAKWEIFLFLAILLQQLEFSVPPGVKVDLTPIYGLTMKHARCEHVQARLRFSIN
The series can be described thus: Competitive CYP inhibition (Method 2), human hepatic microsome. The following applies: tested at 1 or 10 μM, phenacetin 10 μM, n = 2; read-out: CYP1A2 IC50 score (competitive inhibition). It counts as in vitro ADME. Also on record: containing human hepatic microsome (0.2 mg/mL); from tissue; host or cells: human hepatic microsomal fraction. How it is done: (§1) The inhibition rate was determined from the amounts of model substrate metabolites with and without addition of the test substance at each test substance concentration, and the IC50 value was calculated from the inhibition rate (calculation method in accordance with Xenobiotica, 1999, 29(1), 53-75).

Series [2] addresses T2, CYP2C9 (Homo sapiens, UniProt P11712). The description is as above. It counts as in vitro ADME. On the procedure:
as §1

The target in series [3] is T3, CYP3A4 (Homo sapiens, UniProt P08684). Described as above. It counts as in vitro ADME. On the procedure:
as §1

Series [4] addresses T4, CYP2C19 (Homo sapiens, UniProt P33261). Described as above. It counts as in vitro ADME. On the procedure: as §1
For series [5], the target named is T5, CYP2D6 (Homo sapiens, UniProt P10635). The description is as above. It counts as in vitro ADME. On the procedure: as §1
T5 sequence (P10635 whole entry): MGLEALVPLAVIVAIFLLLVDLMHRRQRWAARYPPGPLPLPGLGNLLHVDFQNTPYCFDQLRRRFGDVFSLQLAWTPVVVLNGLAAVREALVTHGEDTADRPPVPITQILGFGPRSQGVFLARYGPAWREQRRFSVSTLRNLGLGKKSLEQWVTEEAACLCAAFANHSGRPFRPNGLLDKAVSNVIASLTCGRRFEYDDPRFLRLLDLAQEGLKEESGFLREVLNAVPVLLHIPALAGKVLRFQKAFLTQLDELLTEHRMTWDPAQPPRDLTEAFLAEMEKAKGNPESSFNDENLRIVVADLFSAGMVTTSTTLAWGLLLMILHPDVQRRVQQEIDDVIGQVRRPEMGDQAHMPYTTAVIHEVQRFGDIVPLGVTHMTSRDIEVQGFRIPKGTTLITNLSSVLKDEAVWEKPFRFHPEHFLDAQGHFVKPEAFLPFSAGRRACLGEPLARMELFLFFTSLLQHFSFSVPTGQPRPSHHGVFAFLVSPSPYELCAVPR
Series [6] deals with T2, CYP2C9. The series can be described thus: Time-dependent CYP inhibition (Method 1), human hepatic microsome. It counts as in vitro ADME. To be noted: 30 min pre-incubation at 37° C., tolbutamide, n = 2.
Description: (§2) The test substance was added to an enzyme solution (containing human hepatic microsome (0.2 mg/mL), 100 mM Kpi and 0.1 mM EDTA), and pre-incubated for 30 minutes at 37° C. in the presence of or absence of the coenzyme. The final concentration of the test substance was set at 0.1, 0.2, 0.4, 0.5, 1, 2, 10 or 50 μM. A NADPH generating system (60 mM MgCl2 solution containing 3.6 mM β-NADP^+, 90 mM glucose-6 phosphate and 1 Unit/mL glucose-6-phosphate dehydrogenase, incubated for 5 minutes to generate NADPH) was used as the coenzyme. After pre-incubation, part of the reaction solution was collected, diluted 10 times by mixing with a model substrate solution and the NADPH generating system, and then incubated for 10 minutes at 37° C. An equal amount of a mixed solution of acetonitrile and methanol (1:1, containing 0.05 μM dextrophan or 0.05 μM propranolol as an internal standard) was added to terminate the reaction, and metabolites of the model substrate in the reaction solution were measured by LC-MS/MS. […] The ratio relative to the amount of model substrate metabolites in the control test was given as residual activity. The ratio of residual activity in the presence of NADPH relative to residual activity in the absence of NADPH was evaluated, and the ratio of 80% or less was defined “+”, while the ratio of above 80% was defined as “−”.
The target in series [7] is T5, CYP2D6. The description is as above. It counts as in vitro ADME. The following applies: 30 min pre-incubation at 37° C., bufuralol, n = 2.
Description: as §2
For series [8], the target named is T3, CYP3A4. Described as above. The following applies: 30 min pre-incubation at 37° C., midazolam, n = 2. It counts as in vitro ADME.
Description: as §2
In series [9] the target is T4, CYP2C19. The series is described as above. It counts as in vitro ADME. The following applies: 30 min pre-incubation at 37° C., S-mephenytoin, n = 2.
Description: as §2
The target in series [10] is T1, CYP1A2. The following applies: 30 min pre-incubation at 37° C., phenacetin, n = 2.
Description: as §2
Another series deals with male BALB/c mice. The series can be described thus: In vivo efficacy test by forced swimming. Also on record: species or system mouse. To be noted: oral, 1 hour before test; Example 1 10, 30 or 100 mg/kg, paroxetine 30 or 100 mg/kg; last 4 minutes; FIG. 1. On the procedure:
After 1 hour, the mice were placed individually in glass cylinders (19 cm in height, 9 cm in diameter) holding 9 cm of water, and observed at 23° C. for 6 minutes, during which time their behavior was recorded with a video camera. The control group was given the same amount of vehicle (0.5% methyl cellulose solution, 10 mL/kg).
The immobility times during the last 4 minutes were calculated from the video recordings. The mice were considered to be immobile if the following three behavioral criteria were met: they stopped struggling, stopped climbing, and floated on the water basically immobile, with only the slight movement necessary to keep their heads above water.

The target of the next series is T6, serotonin transporter (Rattus norvegicus, UniProt P31652).
T6 construct: evaluated using rat platelets expressing serotonin transporters; from tissue
T6 sequence (P31652 whole entry): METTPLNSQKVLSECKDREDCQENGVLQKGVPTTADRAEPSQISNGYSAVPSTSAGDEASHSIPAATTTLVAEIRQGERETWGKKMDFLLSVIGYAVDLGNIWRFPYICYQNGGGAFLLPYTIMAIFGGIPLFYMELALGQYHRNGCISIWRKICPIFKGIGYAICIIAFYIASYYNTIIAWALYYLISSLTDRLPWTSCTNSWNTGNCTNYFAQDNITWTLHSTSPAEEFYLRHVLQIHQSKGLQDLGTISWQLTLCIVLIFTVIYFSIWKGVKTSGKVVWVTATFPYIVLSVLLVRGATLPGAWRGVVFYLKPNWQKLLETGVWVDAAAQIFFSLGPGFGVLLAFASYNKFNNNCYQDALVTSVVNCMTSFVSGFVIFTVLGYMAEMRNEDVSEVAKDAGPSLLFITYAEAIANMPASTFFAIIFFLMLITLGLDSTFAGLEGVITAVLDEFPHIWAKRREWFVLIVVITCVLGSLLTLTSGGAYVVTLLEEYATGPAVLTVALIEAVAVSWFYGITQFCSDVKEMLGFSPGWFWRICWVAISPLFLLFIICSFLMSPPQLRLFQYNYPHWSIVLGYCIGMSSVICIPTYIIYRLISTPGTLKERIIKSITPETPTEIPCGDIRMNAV
The series can be described thus: Inhibitory action on serotonin transporter (fluorescent substrate uptake in rat platelets). It counts as cell-based.

Where two headings read alike, the source gives them in different places.

T2 sequence (P11712 whole entry): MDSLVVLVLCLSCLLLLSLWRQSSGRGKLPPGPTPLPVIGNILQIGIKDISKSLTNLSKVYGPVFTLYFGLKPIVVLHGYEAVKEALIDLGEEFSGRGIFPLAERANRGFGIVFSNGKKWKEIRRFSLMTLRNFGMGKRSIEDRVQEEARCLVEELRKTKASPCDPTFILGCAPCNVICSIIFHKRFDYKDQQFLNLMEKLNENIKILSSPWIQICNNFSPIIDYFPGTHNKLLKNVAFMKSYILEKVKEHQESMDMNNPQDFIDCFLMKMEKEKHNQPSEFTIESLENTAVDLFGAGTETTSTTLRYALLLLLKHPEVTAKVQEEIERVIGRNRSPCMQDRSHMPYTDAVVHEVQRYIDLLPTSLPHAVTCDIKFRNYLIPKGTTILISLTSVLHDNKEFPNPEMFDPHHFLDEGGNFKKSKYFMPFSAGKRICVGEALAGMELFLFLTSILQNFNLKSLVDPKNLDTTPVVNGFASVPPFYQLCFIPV
T3 sequence (P08684 whole entry): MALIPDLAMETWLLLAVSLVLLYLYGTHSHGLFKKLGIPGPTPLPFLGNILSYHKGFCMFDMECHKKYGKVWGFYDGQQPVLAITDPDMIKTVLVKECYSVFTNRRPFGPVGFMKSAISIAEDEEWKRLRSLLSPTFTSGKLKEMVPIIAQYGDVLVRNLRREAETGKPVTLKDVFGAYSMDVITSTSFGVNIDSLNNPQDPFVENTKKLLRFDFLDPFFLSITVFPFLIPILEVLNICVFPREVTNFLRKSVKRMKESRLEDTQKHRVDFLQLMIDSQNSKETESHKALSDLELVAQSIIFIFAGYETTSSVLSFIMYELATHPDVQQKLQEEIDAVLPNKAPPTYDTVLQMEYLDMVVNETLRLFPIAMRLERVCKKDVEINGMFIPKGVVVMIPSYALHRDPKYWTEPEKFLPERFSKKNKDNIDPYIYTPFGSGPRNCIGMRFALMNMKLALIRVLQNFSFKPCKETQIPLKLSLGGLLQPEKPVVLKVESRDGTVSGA
T4 sequence (P33261 whole entry): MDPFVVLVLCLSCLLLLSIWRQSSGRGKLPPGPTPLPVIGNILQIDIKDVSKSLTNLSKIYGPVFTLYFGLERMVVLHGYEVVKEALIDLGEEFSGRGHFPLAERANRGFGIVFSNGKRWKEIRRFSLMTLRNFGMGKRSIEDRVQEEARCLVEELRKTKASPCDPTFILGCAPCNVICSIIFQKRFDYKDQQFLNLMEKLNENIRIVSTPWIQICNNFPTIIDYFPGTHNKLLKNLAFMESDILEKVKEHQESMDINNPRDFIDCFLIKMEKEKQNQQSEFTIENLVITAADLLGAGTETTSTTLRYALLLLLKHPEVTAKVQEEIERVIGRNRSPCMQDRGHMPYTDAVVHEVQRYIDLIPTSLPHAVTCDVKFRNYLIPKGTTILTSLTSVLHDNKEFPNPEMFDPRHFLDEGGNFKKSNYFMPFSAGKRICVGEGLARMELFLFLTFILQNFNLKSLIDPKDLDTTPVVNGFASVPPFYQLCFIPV
Description for serotonin transporter: That is, the test compound was added to rat platelets, the fluorescent substance of a Neurotransmitter Transporter Activity Assay Kit (Molecular Devices, R8174) was added beginning after 15 minutes, and changes in fluorescent intensity from uptake of the fluorescent substance were measured over time to evaluate the inhibitory effect of the test compound on serotonin transporter.
2 Centrifugation was carried out at 350 g at room temperature for 5 minutes, and the supernatant containing platelet-rich plasma was collected in 15 ml falcon tubes.
3 Centrifugation was carried out at 2100 g at room temperature for 10 minutes to obtain platelets as a pellet. Ca-free K5 buffer was added in the amount of 0.7 times the amount of platelet-rich plasma obtained in operation 2, and the pellet was triturated by pipetting.
5 The fluorescent substance of a Neurotransmitter Transporter Activity Assay Kit was added, and changes in fluorescent intensity over time from uptake of the fluorescent substance through serotonin transporters were measured with a FDSS 6000 (Hamamatsu Photonics).

Regarding `Fc1ccc([C@@H]2CCNC[C@H]2COc2ccc3c(c2)COC3)cc1` [Example 1, (3S,4R)-3-[(1,3-dihydro-2-benzofuran-5-yloxy)methyl]-4-(4-fluorophenyl)piperidine], the IC50 on CYP1A2 [1] is > 10 µM; at CYP2C9 [2], > 10 µM; on CYP3A4 [3], > 10 µM; on CYP2C19 [4] it was > 10 µM; at CYP2D6 [5] it was > 10 µM; at serotonin transporter, 0.0024 µM. Besides, the “Ratio of residual CYP2C9 activity in presence vs absence of NADPH after pre-incubation” value on CYP2C9 [6] (10 μM) and at CYP2C9 [6] (50 μM) was “− (the ratio of above 80% was defined as “−”)” in each case. Moreover, the “Ratio of residual CYP2D6 activity in presence vs absence of NADPH after pre-incubation” value at CYP2D6 [7] (10 μM) and at CYP2D6 [7] (50 μM) was “− (the ratio of above 80% was defined as “−”)” in each case. In addition, the “Ratio of residual CYP3A4 activity in presence vs absence of NADPH after pre-incubation” value at CYP3A4 [8] (10 μM) and at CYP3A4 [8] (50 μM) was “− (the ratio of above 80% was defined as “−”)” throughout. Also, the “Ratio of residual CYP2C19 activity in presence vs absence of NADPH after pre-incubation” value at CYP2C19 [9] (10 μM) and at CYP2C19 [9] (50 μM) was “− (the ratio of above 80% was defined as “−”)” each time. Moreover, the “Ratio of residual CYP1A2 activity in presence vs absence of NADPH after pre-incubation” value at CYP1A2 [10] (10 μM) and on CYP1A2 [10] (50 μM) was “− (the ratio of above 80% was defined as “−”)” throughout. The “immobility time in forced swimming test” value with male BALB/c mice is recorded as “dose-dependently suppressed immobility time”.

With `Fc1ccc([C@@H]2CCNC[C@H]2COc2ccc3c(c2)OCO3)cc1` [Paroxetine, (3S,4R)-3-[(2H-1,3-benzodioxol-5-yloxy)methyl]-4-(4-fluorophenyl)piperidine, reference compound], the IC50 at CYP1A2 [1] was > 10 µM; at CYP2C9 [2] (tested at 1 or 10 μM, tolbutamide 100 μM, n = 2, read-out: CYP2C9 IC50 score (competitive inhibition)), > 10 µM. For the same compound, the “immobility time in forced swimming test” value in the series on male BALB/c mice is reported as “dose-dependently suppressed immobility time”.

One may read the IC50 as the concentration that gives 50% inhibition.

The record behind these values is US8933100B2 (priority 2012, dated 2015).
